Measured values from patent US11780845B2 (Relay Therapeutics, Inc., priority 2019, dated 2023).

What was measured:
[1] = target: FGFR2 (Homo sapiens (Human), UniProt P21802); assay: FGFR2 Biochemical Caliper Assay
Procedure: Compounds of the present invention were also tested in a FGFR2 Biochemical Caliper Assay. Compounds were prepared in 10 mM DMSO solution and serially diluted into 11 concentrations by 3-fold dilution. […] 5 uL of ATP solution (100 uM) was added to start the reaction and the plate was incubated for 90 minutes, then 70 uL of stopping buffer (0.5M EDTA) was added to terminate the reaction. Each well was analyzed using EZ reader.

[2] = system: SNU16 cells; assay: SNU16 Cancer Cell Line Proliferation Assay; type: cell-based; settings: Homo sapiens; SNU-16 cells
In short: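 Proliferation read-out: CellTiter Glo chemiluminescence after 96 h compound exposure. Test compounds, serially diluted 3-fold over 11 points from a 10 mM DMSO stock, were added to SNU16 cells plated 24 h earlier at 37 degrees.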

Chain of FGFR2 (P21802 22-821): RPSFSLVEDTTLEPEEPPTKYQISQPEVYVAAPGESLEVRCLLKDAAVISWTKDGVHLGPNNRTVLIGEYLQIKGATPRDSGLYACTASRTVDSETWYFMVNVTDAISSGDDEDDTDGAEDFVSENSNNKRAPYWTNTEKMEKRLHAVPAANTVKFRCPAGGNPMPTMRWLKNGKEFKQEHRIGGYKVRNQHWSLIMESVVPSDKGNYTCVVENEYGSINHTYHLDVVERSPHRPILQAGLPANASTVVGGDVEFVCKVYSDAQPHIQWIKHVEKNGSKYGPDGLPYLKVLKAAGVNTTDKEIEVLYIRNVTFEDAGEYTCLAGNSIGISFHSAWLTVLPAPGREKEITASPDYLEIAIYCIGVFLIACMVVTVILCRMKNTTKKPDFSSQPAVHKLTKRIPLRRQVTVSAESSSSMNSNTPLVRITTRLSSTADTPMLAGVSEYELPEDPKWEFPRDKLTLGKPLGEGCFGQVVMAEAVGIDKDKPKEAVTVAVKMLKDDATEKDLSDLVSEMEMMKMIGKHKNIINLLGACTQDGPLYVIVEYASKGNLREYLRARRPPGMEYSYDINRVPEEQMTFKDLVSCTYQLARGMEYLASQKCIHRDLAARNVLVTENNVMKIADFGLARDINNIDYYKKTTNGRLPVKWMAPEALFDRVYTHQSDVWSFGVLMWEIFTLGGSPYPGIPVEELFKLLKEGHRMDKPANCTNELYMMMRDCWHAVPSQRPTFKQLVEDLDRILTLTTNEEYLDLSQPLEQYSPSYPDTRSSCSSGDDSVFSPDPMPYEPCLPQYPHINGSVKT

C=C(C)C(=O)Nc1ccc(-c2c(-c3ccc(C(=O)NCC(C)C)cc3)c3c(N)ncnc3n2C)cc1 [Example 307]
IC50 [1]: < 100 nM | IC50 [2]: ≤ 100 nM

C=C(C)C(=O)Nc1ccc(-c2c(-c3ccc(C(=O)NC4CCCC4O)cc3)c3c(N)ncnc3n2C)cc1 (stereo not shown) [Example 308]
IC50 [1]: < 100 nM | IC50 [2]: 100 to 250 nM

C=C(C)C(=O)Nc1ccc(-c2c(-c3ccc(S(=O)(=O)NC4CCCC4O)cc3)c3c(N)ncnc3n2C)cc1 (stereo not shown) [Example 309]
IC50 [1]: 1000 to 100000 nM | IC50 [2]: 250 to 1000 nM

C=C(C)C(=O)Nc1ccc(-c2c(-c3ccc(S(=O)(=O)NCC(C)(C)O)cc3)c3c(N)ncnc3n2C)cc1 [Example 310]
IC50 [1]: 1000 to 100000 nM | IC50 [2]: 250 to 1000 nM

C=C(C)C(=O)Nc1ccc(-c2c(-c3ccc(S(=O)(=O)NC4CCC4)cc3)c3c(N)ncnc3n2C)cc1 [Example 311]
IC50 [1]: 250 to 1000 nM | IC50 [2]: 250 to 1000 nM

C=C(C)C(=O)Nc1ccc(-c2c(-c3ccc(S(=O)(=O)N(C)C4CCCC4)cc3)c3c(N)ncnc3n2C)cc1 [Example 312]
IC50 [1]: 250 to 1000 nM | IC50 [2]: 250 to 1000 nM

C=C(C)C(=O)Nc1ccc(-c2c(-c3ccc(-c4ncco4)nc3)c3c(N)ncnc3n2C)cc1 [Example 313]
IC50 [1]: 1000 to 100000 nM | IC50 [2]: 250 to 1000 nM

C=C(C)C(=O)Nc1ccc(-c2c(-c3ccc(S(=O)(=O)CC4CCCC4)cc3)c3c(N)ncnc3n2C)cc1 [Example 314]
IC50 [1]: 250 to 1000 nM | IC50 [2]: 250 to 1000 nM

C=C(C)C(=O)Nc1ccc(-c2c(-c3ccc(S(=O)(=O)CCC(F)(F)F)cc3)c3c(N)ncnc3n2C)cc1 [Example 315]
IC50 [1]: 250 to 1000 nM | IC50 [2]: 250 to 1000 nM

C=C(C)C(=O)Nc1ccc(-c2c(-c3ccc(S(=O)(=O)N(C)CC(F)(F)F)cc3)c3c(N)ncnc3n2C)cc1 [Example 316]
IC50 [1]: 250 to 1000 nM | IC50 [2]: 250 to 1000 nM

C=C(C)C(=O)Nc1ccc(-c2c(-c3ccc(S(=O)(=O)NC4CCCC4OC)cc3)c3c(N)ncnc3n2C)cc1 (stereo not shown) [Example 318]
IC50 [1]: 1000 to 100000 nM | IC50 [2]: 250 to 1000 nM

C=C(C)C(=O)Nc1ccc(-c2c(-c3ccc(C(=O)NCC4CC4)cc3)c3c(N)ncnc3n2C)cc1 [Example 320]
IC50 [1]: < 100 nM | IC50 [2]: ≤ 100 nM

C=C(C)C(=O)Nc1ccc(-c2c(-c3ccc(C(=O)NC4CCCC4OC)cc3)c3c(N)ncnc3n2C)cc1 (stereo not shown) [Example 321]
IC50 [1]: 100 to 250 nM | IC50 [2]: 100 to 250 nM

C=C(C)C(=O)Nc1ccc(-c2c(-c3ccc(C(=O)N(C)Cc4ncon4)cc3)c3c(N)ncnc3n2C)cc1 [Example 324]
IC50 [1]: 1000 to 100000 nM | IC50 [2]: 250 to 1000 nM

C=C(C)C(=O)Nc1ccc(-c2c(-c3ccc(C(=O)NC4CCCOC4)cc3)c3c(N)ncnc3n2C)cc1 (stereo not shown) [Example 327]
IC50 [1]: < 100 nM | IC50 [2]: 100 to 250 nM

C=C(C)C(=O)Nc1ccc(-c2c(-c3ccc(C(=O)N[C@@H](CO)CC4CC4)cc3)c3c(N)ncnc3n2C)cc1 [Example 329]
IC50 [1]: < 100 nM | IC50 [2]: 250 to 1000 nM

C=C(C)C(=O)Nc1ccc(-c2c(-c3ccc(C(=O)NCC(C)(C)CO)cc3)c3c(N)ncnc3n2C)cc1 [Example 331]
IC50 [1]: < 100 nM | IC50 [2]: ≤ 100 nM

C=C(C)C(=O)Nc1ccc(-c2c(-c3ccc(C(=O)NCC(O)C(F)(F)F)cc3)c3c(N)ncnc3n2C)cc1 (stereo not shown) [Example 332]
IC50 [1]: < 100 nM | IC50 [2]: 250 to 1000 nM

C=C(C)C(=O)Nc1ccc(-c2c(-c3ccc(C(=C)N[C@H]4CCOC4)cc3)c3c(N)ncnc3n2C)cc1 [Example 335]
IC50 [1]: 250 to 1000 nM | IC50 [2]: 250 to 1000 nM

C=C(C)C(=O)Nc1ccc(-c2c(-c3ccc(C(=O)NCC#N)cc3)c3c(N)ncnc3n2C)cc1 [Example 337]
IC50 [1]: 250 to 1000 nM | IC50 [2]: 250 to 1000 nM

C=C(C)C(=O)Nc1ccc(-c2c(-c3ccc(C(=O)NCC4(F)COC4)cc3)c3c(N)ncnc3n2C)cc1 [Example 338]
IC50 [1]: < 100 nM | IC50 [2]: ≤ 100 nM

C=C(C)C(=O)Nc1ccc(-c2c(-c3ccc(Oc4ncc(C)cn4)cc3)c3c(N)ncnc3n2C)cc1 [Example 339]
IC50 [1]: 100 to 250 nM | IC50 [2]: ≤ 100 nM

C=C(C)C(=O)Nc1ccc(-c2c(-c3ccc(Oc4cccc(C)n4)cc3)c3c(N)ncnc3n2C)cc1F [Example 340]
IC50 [1]: < 100 nM | IC50 [2]: ≤ 100 nM

C=C(C)C(=O)Nc1ccc(-c2c(-c3ccc(Oc4cccc(C)n4)cc3)c3c(N)ncnc3n2C)c(F)c1 [Example 341]
IC50 [1]: < 100 nM | IC50 [2]: ≤ 100 nM

C=C(C)C(=O)Nc1ccc(-c2c(-c3ccc(Oc4cccc(OC)n4)cc3)c3c(N)ncnc3n2C)cc1 [Example 342]
IC50 [1]: < 100 nM | IC50 [2]: ≤ 100 nM

C=C(C)C(=O)Nc1ccc(-c2c(-c3ccc(Oc4cccc(C)n4)cc3)c3c(N)ncnc3n2C)cc1OC [Example 344]
IC50 [1]: 100 to 250 nM | IC50 [2]: ≤ 100 nM

C=C(C)C(=O)Nc1ccc(-c2c(-c3ccc(C(=O)N[C@@H](COC)C4CC4)cc3)c3c(N)ncnc3n2C)cc1 [Example 346]
IC50 [1]: < 100 nM | IC50 [2]: ≤ 100 nM

C=C(C)C(=O)Nc1ccc(-c2c(-c3ccc(C(=O)NCC4CCO4)cc3)c3c(N)ncnc3n2C)cc1 (stereo not shown) [Example 348]
IC50 [1]: < 100 nM | IC50 [2]: 250 to 1000 nM

C=C(C)C(=O)Nc1ccc(-c2c(-c3ccc(C(=O)NCC4(OC)CCC4)cc3)c3c(N)ncnc3n2C)cc1 [Example 351]
IC50 [1]: < 100 nM | IC50 [2]: ≤ 100 nM

C=C(C)C(=O)Nc1ccc(-c2c(-c3ccc(C(=O)NC4C5COCC54)cc3)c3c(N)ncnc3n2C)cc1 (stereo not shown) [Example 352]
IC50 [1]: 250 to 1000 nM | IC50 [2]: 250 to 1000 nM

C=C(C)C(=O)Nc1ccc(-c2c(-c3ccc(C(=O)N4CCC[C@H](OC)C4)cc3)c3c(N)ncnc3n2C)cc1 [Example 353]
IC50 [1]: 1000 to 100000 nM | IC50 [2]: 250 to 1000 nM

C=C(C)C(=O)Nc1ccc(-c2c(-c3ccc(C(=O)N4CCCC4)cc3)c3c(N)ncnc3n2C)cc1OC [Example 354]
IC50 [1]: 1000 to 100000 nM | IC50 [2]: 250 to 1000 nM

C=C(C)C(=O)Nc1ccc(-c2c(-c3ccc(C(=O)N4CCCC4)cc3)c3c(N)ncnc3n2C)c(F)c1 [Example 355]
IC50 [1]: < 100 nM | IC50 [2]: ≤ 100 nM

C=C(C)C(=O)Nc1ccc(-c2c(-c3ccc(C(=O)N4CCC[C@H]4COC)cc3)c3c(N)ncnc3n2C)cc1 [Example 357]
IC50 [1]: < 100 nM | IC50 [2]: ≤ 100 nM

C=C(C)C(=O)Nc1ccc(-c2c(-c3ccc(C(=O)N4CCC[C@@H]4COC)cc3)c3c(N)ncnc3n2C)cc1 [Example 361]
IC50 [1]: 250 to 1000 nM | IC50 [2]: 250 to 1000 nM

C=C(C)C(=O)Nc1ccc(-c2c(-c3ccc(C(=O)NCC4CCOC4)cc3)c3c(N)ncnc3n2C)cc1 (stereo not shown) [Example 362]
IC50 [1]: < 100 nM | IC50 [2]: 250 to 1000 nM

C=C(C)C(=O)Nc1ccc(-c2c(-c3ccc(C(=O)NC4(COC)CCC4)cc3)c3c(N)ncnc3n2C)cc1 [Example 365]
IC50 [1]: < 100 nM | IC50 [2]: ≤ 100 nM

C=C(C)C(=O)Nc1ccc(-c2c(-c3ccc(C(=O)N(C)CC(C)(C)O)cc3)c3c(N)ncnc3n2C)cc1 [Example 368]
IC50 [1]: 250 to 1000 nM | IC50 [2]: 250 to 1000 nM

C=C(C)C(=O)Nc1ccc(-c2c(-c3ccc(C(=O)N4CCCCC4COC)cc3)c3c(N)ncnc3n2C)cc1 (stereo not shown) [Example 369]
IC50 [1]: < 100 nM | IC50 [2]: ≤ 100 nM

C=C(C)C(=O)Nc1ccc(-c2c(-c3ccc(Oc4cccc(C)n4)cc3)c3c(N)ncnc3n2CCOC)cc1 [Example 370]
IC50 [1]: < 100 nM | IC50 [2]: ≤ 100 nM

C=C(C)C(=O)Nc1ccc(-c2c(-c3ccc(C(=O)NC(CF)CF)cc3)c3c(N)ncnc3n2C)cc1 [Example 371]
IC50 [1]: < 100 nM | IC50 [2]: ≤ 100 nM

C=C(C)C(=O)Nc1ccc(-c2c(-c3ccc(C(=O)NCC4(CO)CC4)cc3)c3c(N)ncnc3n2C)cc1 [Example 372]
IC50 [1]: < 100 nM | IC50 [2]: 250 to 1000 nM

C=C(C)C(=O)Nc1ccc(-c2c(-c3ccc(C(=O)NCC(C)(C)C#N)cc3)c3c(N)ncnc3n2C)cc1 [Example 373]
IC50 [1]: < 100 nM | IC50 [2]: ≤ 100 nM

C=C(C)C(=O)Nc1ccc(-c2c(-c3ccc(C(=O)N(C)Cc4nnc(C)o4)cc3)c3c(N)ncnc3n2C)cc1 [Example 374]
IC50 [1]: 1000 to 100000 nM | IC50 [2]: 250 to 1000 nM

C=C(C)C(=O)Nc1ccc(-c2c(-c3ccc(C(=O)N(C)Cc4noc(C)n4)cc3)c3c(N)ncnc3n2C)cc1 [Example 375]
IC50 [1]: 250 to 1000 nM | IC50 [2]: 250 to 1000 nM

C=C(C)C(=O)Nc1ccc(-c2c(-c3ccc(C(=O)NCC4CCCO4)cc3)c3c(N)ncnc3n2C)cc1 (stereo not shown) [Example 376]
IC50 [1]: < 100 nM | IC50 [2]: ≤ 100 nM

C=C(C)C(=O)Nc1ccc(-c2c(-c3ccc(C(=O)NCC4CCCN4C)cc3)c3c(N)ncnc3n2C)cc1 (stereo not shown) [Example 377]
IC50 [1]: 250 to 1000 nM | IC50 [2]: 250 to 1000 nM

C=C(C)C(=O)Nc1ccc(-c2c(-c3ccc(Oc4cccc(C)n4)c(OCCOC)c3)c3c(N)ncnc3n2C)cc1 [Example 378]
IC50 [1]: 1000 to 100000 nM | IC50 [2]: 250 to 1000 nM

C=C(C)C(=O)Nc1ccc(-c2c(-c3ccc(Oc4cccc(N)n4)cc3)c3c(N)ncnc3n2C)cc1 [Example 379]
IC50 [1]: < 100 nM | IC50 [2]: ≤ 100 nM

C=C(C)C(=O)Nc1ccc(-c2c(-c3ccc(Oc4cccc(C)n4)cc3)c3c(N)ncnc3n2C)cc1CN(C)C [Example 380]
IC50 [1]: 100 to 250 nM | IC50 [2]: 250 to 1000 nM

C=C(C)C(=O)Nc1ccc(-c2c(-c3ccc(C(=O)NCC4CCC4)cc3)c3c(N)ncnc3n2C)cc1 [Example 381]
IC50 [1]: < 100 nM | IC50 [2]: ≤ 100 nM

C=C(C)C(=O)Nc1ccc(-c2c(-c3ccc(Oc4nccc(C)n4)cc3)c3c(N)ncnc3n2C)cc1 [Example 382]
IC50 [1]: < 100 nM | IC50 [2]: ≤ 100 nM

C=C(C)C(=O)Nc1ccc(-c2c(-c3ccc(C(=O)NCc4ccn(C)n4)cc3)c3c(N)ncnc3n2C)cc1 [Example 383]
IC50 [1]: 1000 to 100000 nM | IC50 [2]: 250 to 1000 nM

C=C(C)C(=O)Nc1ccc(-c2c(-c3ccc(Oc4cccc(C)n4)cc3)c3c(N)ncnc3n2C)c(C)c1 [Example 384]
IC50 [1]: < 100 nM | IC50 [2]: ≤ 100 nM

C=C(C)C(=O)Nc1ccc(-c2c(-c3ccc(Oc4cccc(C)n4)cc3)c3c(N)ncnc3n2C)cc1C [Example 385]
IC50 [1]: 100 to 250 nM | IC50 [2]: ≤ 100 nM

C=C(C)C(=O)Nc1ccc(-c2c(-c3ccc(C(=O)NC4CCOC4)c(OC)c3)c3c(N)ncnc3n2C)cc1 (stereo not shown) [Example 386]
IC50 [1]: < 100 nM | IC50 [2]: 100 to 250 nM
